Tested on: HBV
Test: HBV replication inhibition assay (BDNA assay) in HepG2.2.15 cells
Type: cell-based
Conditions: 6 days treatment, encapsidated HBV DNA in supernatant by branched DNA QuantiGene assay
Source text: HBV replication inhibition by the compounds of this invention could be determined in cells infected or transfected with HBV, or cells with stably integrated HBV, such as HepG2.2.15 cells (Sells et al. 1987). In this example, HepG2.2.15 cells were maintained in cell culture medium containing 10% fetal bovine serum (FBS), Geneticin, L-glutamine, penicillin and streptomycin. HepG2.2.15 cells could be seeded in 96-well plates at a density of 40,000 cells/well and be treated with serially diluted compounds at a final DMSO concentration of 0.5% either alone or in combination by adding drugs in a checker box format. Cells were incubated with compounds for three days, after which medium was removed and fresh medium containing compounds was added to cells and incubated for another three days. At day 6, supernatant was removed and treated with DNase at 37° C. for 60 minutes, followed by enzyme inactivation at 75° C. for 15 minutes. Encapsidated HBV DNA was released from the virions and covalently linked HBV polymerase by incubating in lysis buffer (Affymetrix QS0010) containing 2.5 μg proteinase K at 50° C. for 40 minutes. HBV DNA was denatured by addition of 0.2 M NaOH and detected using a branched DNA (BDNA) QuantiGene assay kit according to manufacturer recommendation (Affymetrix). HBV DNA levels could also be quantified using qPCR, based on amplification of encapsidated HBV DNA extraction with QuickExtraction Solution (Epicentre Biotechnologies) and amplification of HBV DNA using HBV specific PCR probes that can hybridize to HBV DNA and a fluorescently labeled probe for quantitation. In addition, cell viability of HepG2.2.15 cells incubated with test compounds alone or in combination was determined by using CellTitre-Glo reagent according to the manufacturer protocol (Promega). The mean background signal from wells containing only culture medium was subtracted from all other samples, and percent inhibition at each compound concentration was calculated by normalizing to signals from HepG2.2.15 cells treated with 0.5% DMSO using equation E1. % inhibition=(DMSOave−Xi)/DMSOave×100% E1: where DMSOave is the mean signal calculated from the wells that were treated with DMSO control (0% inhibition control) and Xi is the signal measured from the individual wells. EC50 values, effective concentrations that achieved 50% inhibitory effect, were determined by non-linear fitting using Graphpad Prism software (San Diego, Calif.) and equation E2 Y=Y min+(Y max−Y min)/(1+10(Log EC50−X)×HillSlope) E2: […]
where Y represents percent inhibition values and X represents the logarithm of compound concentrations.
Selected compounds of the invention were assayed in the HBV replication assay (BDNA assay), as described above and a representative group of these active compounds is shown in Table 3. […] In Table 3, “A” represents 0.01<EC50<0.10; “B” represents 0.10≤EC50<0.50; and “C” represents 0.50≤EC50<1.0; (‘+’ indicates >50% activity at 10 μM).

[1] = Hepatitis B virus, HepG2.2.15, 144 h

| Structure (SMILES) | EC50 [1] [nM] | other results |
| --- | --- | --- |
| C[C@H]1Cc2[nH]nc(C3CCCO3)c2CN1C(=O)Nc1cccc(Cl)c1 (single isomer, unassigned) [964 D1] | 10 to 100 |  |
| C[C@H]1Cc2[nH]nc(C3CCCO3)c2CN1C(=O)Nc1ccc(F)c(Cl)c1 (single isomer, unassigned) [965 D1] | 10 to 100 |  |
| C[C@H]1Cc2[nH]nc(C3CCCO3)c2CN1C(=O)Nc1cccc(Br)c1 (single isomer, unassigned) [966 D1] | 10 to 100 |  |
| C[C@H]1Cc2[nH]nc(C3CCCO3)c2CN1C(=O)Nc1ccc(F)c(Br)c1 (single isomer, unassigned) [967 D1] |  | EC50: 10 to 100 nM |
| C[C@H]1Cc2[nH]nc(C3CCCO3)c2CN1C(=O)Nc1ccc(F)c(Br)c1 (single isomer, unassigned) [967 D2] |  | EC50: 100 to 500 nM |
| C[C@H]1Cc2[nH]nc(C3CCCO3)c2CN1C(=O)Nc1ccnc(Br)c1F (single isomer, unassigned) [968 D1] | 500 to 1000 |  |
| C[C@H]1Cc2[nH]nc(C3CCCO3)c2CN1C(=O)Nc1ccc(F)c(C#N)c1 (single isomer, unassigned) [969 D1] | 100 to 500 |  |
| Cc1cccc(NC(=O)N2Cc3c(C4CCCO4)n[nH]c3C[C@@H]2C)c1 (single isomer, unassigned) [970 D1] | 100 to 500 |  |
| Cc1cc(NC(=O)N2Cc3c(C4CCCO4)n[nH]c3C[C@@H]2C)ccc1F (single isomer, unassigned) [971 D1] | 10 to 100 |  |
| CC1Cc2[nH]nc(C3CCC3)c2CN1C(=O)Nc1ccnc(Br)c1F (stereo not shown) [760 S] | 100 to 500 |  |
| CC1Cc2[nH]nc(C3CCC3)c2CN1C(=O)Nc1cccc(C#N)c1F (stereo not shown) [761 R] | 100 to 500 |  |
| C[C@@H]1Cc2[nH]nc(C3CCCC3)c2CN1C(=O)Nc1cccc(Br)c1 [927 R] | 10 to 100 |  |
| C[C@H]1Cc2[nH]nc(C3CCCC3)c2CN1C(=O)Nc1cccc(Br)c1 [927 S] | 10 to 100 |  |
| C[C@@H]1Cc2[nH]nc(C3CCCC3)c2CN1C(=O)Nc1ccc(F)c(Br)c1 [928 R] | 10 to 100 |  |
| C[C@H]1Cc2[nH]nc(C3CCCC3)c2CN1C(=O)Nc1ccc(F)c(Br)c1 [928 S] | 10 to 100 |  |
| C[C@@H]1Cc2[nH]nc(C3CCCC3)c2CN1C(=O)Nc1ccnc(Br)c1F [929 R] | 10 to 100 |  |
| C[C@H]1Cc2[nH]nc(C3CCCC3)c2CN1C(=O)Nc1ccnc(Br)c1F [929 S] | 10 to 100 |  |
| C[C@@H]1Cc2[nH]nc(C3CCCC3)c2CN1C(=O)Nc1ccc(F)c(C#N)c1 [930 R] | 10 to 100 |  |
| C[C@H]1Cc2[nH]nc(C3CCCC3)c2CN1C(=O)Nc1ccc(F)c(C#N)c1 [930 S] | 10 to 100 |  |
| Cc1cc(NC(=O)N2Cc3c(C4CCCC4)n[nH]c3C[C@H]2C)ccc1F [931 R] | 10 to 100 |  |
| Cc1cc(NC(=O)N2Cc3c(C4CCCC4)n[nH]c3C[C@@H]2C)ccc1F [931 S] | 10 to 100 |  |
| C[C@@H]1Cc2[nH]nc(C3CCCC3)c2CN1C(=O)Nc1ccc(F)c(Cl)c1 [932 R] | 10 to 100 |  |
| C[C@H]1Cc2[nH]nc(C3CCCC3)c2CN1C(=O)Nc1ccc(F)c(Cl)c1 [932 S] | 10 to 100 |  |
| Cc1cccc(NC(=O)N2Cc3c(C4CCCC4)n[nH]c3C[C@H]2C)c1 [933 R] | 10 to 100 |  |
| Cc1cccc(NC(=O)N2Cc3c(C4CCCC4)n[nH]c3C[C@@H]2C)c1 [933 S] | 10 to 100 |  |
| C[C@@H]1Cc2[nH]nc(C3CCCC3)c2CN1C(=O)Nc1cccc(Cl)c1 [934 R] | 10 to 100 |  |

| Structure (SMILES) | EC50 [1] [nM] | other results |
| --- | --- | --- |
| C[C@H]1Cc2[nH]nc(C3CCCC3)c2CN1C(=O)Nc1cccc(Cl)c1 [934 S] | 10 to 100 |  |
| C[C@H]1Cc2[nH]nc(C3CCCO3)c2CN1C(=O)Nc1ccc(F)c(Cl)c1 (stereo partly shown) [965 D2] | 10 to 100 |  |
| C[C@H]1Cc2[nH]nc(C3CCCO3)c2CN1C(=O)Nc1ccc(F)c(C#N)c1 (stereo partly shown) [969 D2] | 100 to 500 |  |
| Cc1cc(NC(=O)N2Cc3c(C4CCCO4)n[nH]c3C[C@@H]2C)ccc1F (stereo partly shown) [971 D2] | 100 to 500 |  |
| CC(C)(O)c1n[nH]c2c1CN(C(=O)Nc1cccc(Cl)c1)CC2 [Compound 238] |  | HBV replication inhibition >50% at 10 μM (qualitative flag): + (‘+’ indicates >50% activity at 10 μM) |
| O=C(Nc1cccc(Cl)c1)N1CCc2[nH]nc(O)c2C1 [Compound 241, N-(3-chlorophenyl)-3-hydroxy-1,4,6,7-tetrahydropyrazolo[4,3-c] pyridine-5-carboxamide] |  | HBV replication inhibition >50% at 10 μM (qualitative flag): + (‘+’ indicates >50% activity at 10 μM) |
| O=C(Nc1cccc(Cl)c1)N1CCc2[nH]nc(Br)c2C1 [Compound 260] |  | HBV replication inhibition >50% at 10 μM (qualitative flag): + (‘+’ indicates >50% activity at 10 μM) |
| O=C(Nc1cccc(Cl)c1)N1CCc2[nH]nc(C3CCCC3)c2C1 [Compound 264, N-(3-chlorophenyl)-3-cyclopentyl-1,4,6,7-tetrahydro pyrazolo[4,3-c]pyridine-5-carboxamide] | 10 to 100 |  |
| CC(C)c1n[nH]c2c1CN(C(=O)Nc1cccc(Cl)c1)CC2 [Compound 267] | 100 to 500 |  |
| O=C(Nc1cccc(Cl)c1)N1CCc2[nH]nc(C3=CCOCC3)c2C1 [Compound 274] | 100 to 500 |  |
| O=C(Nc1cccc(Cl)c1)N1CCc2[nH]nc(C3CCOCC3)c2C1 [Compound 275] | 100 to 500 |  |
| C=C(C)c1n[nH]c2c1CN(C(=O)Nc1cccc(Cl)c1)CC2 [Compound 336] | 10 to 100 |  |
| O=C(Nc1cccc(Cl)c1)N1CCc2[nH]nc(C3=CCCCC3)c2C1 [Compound 337, N-(3-chlorophenyl)-3-(cyclohexen-1-yl)-1,4,6,7-tetrahydro pyrazolo[4,3-c]pyridine-5-carboxamide] | 10 to 100 |  |
| O=C(Nc1cccc(Cl)c1)N1CCc2[nH]nc(C3=CCCC3)c2C1 [Compound 338, N-(3-chlorophenyl)-3-(cyclopenten-1-yl)-1,4,6,7-tetrahydropyrazolo[4,3-c]pyridine-5-carboxamide] | 10 to 100 |  |
| CC(CO)c1n[nH]c2c1CN(C(=O)Nc1cccc(Cl)c1)CC2 (stereo not shown) [Compound 388, N-(3-chlorophenyl)-3-(2-hydroxy-1-methyl-ethyl)-1,4,6,7-tetrahydropyrazolo[4,3-c]pyridine-5-carboxamide] |  | HBV replication inhibition >50% at 10 μM (qualitative flag): + (‘+’ indicates >50% activity at 10 μM) |
| O=C(Nc1cccc(Cl)c1)N1CCc2[nH]nc(C3CC3)c2C1 [Compound 440, N-(3-chlorophenyl)-3-cyclopropyl-1,4,6,7-tetrahydropyrazolo[4,3-c]pyridine-5-carboxamide] | 100 to 500 |  |
| CC1(c2n[nH]c3c2CN(C(=O)Nc2cccc(Cl)c2)CC3)CC1 [Compound 441] | 100 to 500 |  |
| O=C(Nc1cccc(Cl)c1)N1CCc2[nH]nc(N3CCCC3)c2C1 [Compound 455, N-(3-chlorophenyl)-3-pyrrolidin-1-yl-1,4,6,7-tetrahydropyrazolo[4,3-c] pyridine-5-carboxamide] | 100 to 500 |  |
| CC(C)(C)c1n[nH]c2c1CN(C(=O)Nc1cccc(Cl)c1)CC2 [Compound 515, 3-tert-butyl-N-(3-chlorophenyl)-1,4,6,7-tetrahydropyrazolo[4,3-c]pyridine-5-carboxamide] | 100 to 500 |  |
| O=C(Nc1cccc(Cl)c1)N1CCc2[nH]nc(C34CCCC3C4)c2C1 (stereo not shown) [Compound 546, 3-(1-bicyclo[3.1.0]hexanyl)-N-(3-chlorophenyl)-1,4,6,7-tetrahydropyrazolo[4,3-c]pyridine-5-carboxamide] | 10 to 100 |  |
| C=C(C)c1n[nH]c2c1CN(C(=O)Nc1ccnc(Cl)c1F)CC2 [Compound 547] | 100 to 500 |  |
| C=C(C)c1n[nH]c2c1CN(C(=O)Nc1cccc(Br)c1F)CC2 [Compound 548] | 10 to 100 |  |
| C=C(C)c1n[nH]c2c1CN(C(=O)Nc1cccc(C)c1)CC2 [Compound 549, 3-isopropenyl-N-(m-tolyl)-1,4,6,7-tetrahydropyrazolo[4,3-c]pyridine-5-carboxamide] | 100 to 500 |  |
| O=C(Nc1cccc(Cl)c1)N1CCc2[nH]nc(C3CCC3)c2C1 [Compound 554, N-(3-chlorophenyl)-3-cyclobutyl-1,4,6,7-tetrahydropyrazolo[4,3-c]pyridine-5-carboxamide] | 10 to 100 |  |
| CCC(C)(C)c1n[nH]c2c1CN(C(=O)Nc1cccc(Cl)c1)CC2 [Compound 604, N-(3-chlorophenyl)-3-(1,1-dimethylpropyl)-1,4,6,7-tetrahydropyrazolo [4,3-c]pyridine-5-carboxamide] | 100 to 500 |  |
| CCCC(F)(F)c1n[nH]c2c1CN(C(=O)Nc1cccc(Cl)c1)CC2 [Compound 642, N-(3-chlorophenyl)-3-(1,1-difluorobutyl)-1,4,6,7-tetrahydropyrazolo[4,3-c]pyridine-5-carboxamide] | 10 to 100 |  |

Source: patent publication US10544141B2, “Derivatives and methods of treating hepatitis B infections” (Novira Therapeutics, Inc., priority 2014, dated 2020)
